The experiment deals with Caco-2 monolayers (efflux transport of Rhodamine 123). Description: Inhibition Protocol: Rhodamine 123 transport across Caco-2 monolayers in the presence of TPGS analog. In kind it is cell-based. Particulars: relative to Rhodamine 123 alone, TPGS analog 33 μmolar. The protocol: As used herein, the term “Inhibition Protocol” or “inhibition protocol” refers to the following test. The test is carried out using Caco-2 (C2BBe1 or HTB-37) monolayers which are known to be a good in vitro model for gastrointestinal epithelial cells. The following describes the inhibition protocol: Caco-2 cells, clone C2BBe1, from passages 48-92 are used. Cells are grown to ˜90% confluent in 75 cm^2 T-flasks with Dulbecco's modified Eagle's medium (DMEM) supplemented with 10% fetal bovine serum (FBS) and 1% non-essential amino-acids. Cells are grown at a temperature of ˜37° C. in an atmosphere of ˜85% relative humidity and ˜5% CO2. Cells are seeded on top of Transwell® inserts (pore size 0.4 μm, 1.13 cm^2) at a density of ˜60,000 cells/cm^2. […]
Rhodamine 123 (RHO) transport is assessed in absorptive (apical to basolateral, Ap→BI) and secretory (BI→Ap) directions. […]
Monolayers are agitated using an orbital shaker at ˜100±20 rpm. […] To ensure integrity of the monolayers, TEER values were measured on the day of the experiment and at the end of the experiment.
Apparent permeability (Papp) was calculated according to: Papp=(dQ/dt)*(1/A)*(1/Co)
where A (cm^2) is the nominal surface area of the monolayer and C0 (μg/mL) is the RHO concentration in the donor compartment at t=0. Relative change of Papp(cm/s)was calculated according to the equation: rel. increase/decrease=|(1−Papp(TPGS)/Papp(RHO))*100|. […]
In general terms: Caco-2 monolayers are a common model of the intestinal barrier.

Regarding “d-α-tocopheryl polyethylene glycol succinate [TPGS 1000]”, the “% Decrease, B to A” value stood at 73.6% and the “% Increase, A to B” value was 82.5%.

The values above are taken from patent US20060165769A1, “Pharmaceutical formulations containing vitamin E TPGS molecules that solubilize lipophilic drugs without significant efflux inhibition, and use of such formulations” (priority 2004, published 2006).
